Measured values as given in patent US8129383B2, “Aminopterin dosage forms and methods for inflammatory disorders” (Aminopterin LLC, priority 2005, dated 2012).
Read-outs that look alike come from different tables or passages of the source.

What was measured:
[1] = tested on: carrageenan-induced inflammation in air pouches; test: duration of efficacy in the murine air-pouch model after cessation of 4 weeks of dosing; format: in vivo, mice; settings: aminopterin 0.05 mg/kg, methotrexate 1.0 mg/kg
Method: We therefore examined the rate at which anti-inflammatory activity was lost in the air-pouch model after the cessation of 4 weeks of dosing at the maximally efficacious dose (FIG. 2).
On day 25 the air pouches were re-inflated with 1.5 ml of air. Pouches were re-inflated as needed to maintain them.

[2] = tested on: canine atopic dermatitis
Method: […] Subjects were assessed at baseline and at weeks 2 and 4 of the trial, and every other week of the 1-year extension phase.
Subjects were assessed at baseline and at weeks 2 and 4.

[3] = tested on: active and passive EAE; test: rat EAE animal model of multiple sclerosis; format: in vivo
Method: Using the rat EAE animal model of multiple sclerosis, a series of prophetic studies are performed wherein aminopterin is given to animals using both active and passive protocols for inducing EAE (Burton, Agents and Actions (1989) 27 (3/4): 351-355). In the active protocol, animals are intradermally injected with myelin basic protein (MBP), Freund's adjuvant and mycobacteria, whereas in the passive protocol separate donor rats are immunized actively and then 10-12 days after active immunization, donor splenocytes are collected and stimulated […] with MBP for 3 days, then 1−2×10^8 leukocytes injected iv into each irradiated (600 rads) recipient rat. Aminopterin at doses of 0.0005, 0.001, 0.002, 0.005, 0.008, 0.010, 0.050, 0.1 and 0.5 mg/kg are administered ip on the day after active or passive sensitization.

[4] = target: T1, partially purified chicken liver DHFR (Gallus gallus, UniProt P00378); test: radioligand DHFR binding assay
T1 sequence (P00378 1-189): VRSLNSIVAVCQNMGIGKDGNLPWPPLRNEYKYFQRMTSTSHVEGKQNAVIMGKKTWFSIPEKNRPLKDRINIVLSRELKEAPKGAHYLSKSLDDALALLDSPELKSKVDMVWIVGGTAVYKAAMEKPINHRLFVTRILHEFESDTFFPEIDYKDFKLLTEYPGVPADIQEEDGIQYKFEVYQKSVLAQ
Method: 16:1458, 1998]. […] After the standard curve is established, a portion of the 200 μM supernatant prepared above for an aminopterin tablet is further diluted 10,000 using two serial 100-fold dilutions with water to provide an approximately 20 nM solution of aminopterin. The DHFR assay is performed with 100 μL of the 20 nM solution, as well as several 2-fold serial dilutions, and the result expressed as pmol/ml aminopterin. The total number of pmol of aminopterin is calculated using the relationship, pmol/ml×10,000×11.35. The total number of mg in the tablet is then calculated using the relationship, total pmol×(10^−6 μmole/pmol)×0.44 mg/μmole.

[5] = tested on: psoriasis; settings: cited from earlier work
[6] = tested on: psoriasis; settings: 329 patients, schedules of the 1955 study; cited from earlier work
[7] = tested on: rheumatoid arthritis, psoriatic arthritis, uncomplicated psoriasis, and atopic dermatitis; settings: 0.75-2 mg/day for approximately 1 week and greater; cited from earlier work
[8] = tested on: formaldehyde arthritis; settings: cumulative weekly doses of 0.3 mg/kg; cited from earlier work
[9] = tested on: antigen-induced arthritis; settings: cumulative weekly doses of >1.5 mg/kg; cited from earlier work

SMILES: Nc1nc(N)c2nc(CNc3ccc(C(=O)N[C@@H](CCC(=O)O)C(=O)O)cc3)cnc2n1 [aminopterin, 4-amino-pteroyl-L-glutamic acid]
- difference between aminopterin and methotrexate in rate of recovery of inflammation ([1]; 8, 12 or 22 days after last of 4 weekly ip doses): no statistically significant difference
- duration of action ([1]; after last of 4 weekly ip doses): quite long
- median improvement from baseline in PVAS score ([2]; 5 dogs, oral 0.01 mg/kg/week, 4 weeks, range −4 to +2): −4
- median improvement from baseline in CADESI score ([2]; 5 dogs, oral 0.01 mg/kg/week, 4 weeks, range −11 to −91%): −59%
- median improvement from baseline in composite CADESI×pruritis score ([2]; 5 dogs, oral 0.01 mg/kg/week, 4 weeks, range −97 to +24%): −60%
- clinical evidence of hematologic (CBC) or liver toxicity (LFTs) ([2]; dogs treated up to 20 weeks at 0.01 mg/kg/week): no clinical evidence of hematologic (CBC) or liver toxicity (LFTs)
- overall evaluation of efficacy by owners ([2]; median score 2, range 1 to 4, oral 0.01 mg/kg/week, 4 weeks): fair (fair (25-50%))
- overall evaluation of efficacy by clinicians ([2]; median score 2, range 1 to 5, oral 0.01 mg/kg/week, 4 weeks): fair (fair (25-50%))
- persistence of inhibition after the single dose ([3]; active or passive EAE): up to 14 days
- dose-response over the range of doses ([3]; sensitized actively or passively): clear dose-response
- inhibition of the onset of active EAE ([3]; single ip dose (0.0005-0.5 mg/kg) day after active sensitization, one or more of the doses): greater than 80%
- inhibition of the onset of passive EAE ([3]; single ip dose (0.0005-0.5 mg/kg) day after passive sensitization, one or more of the doses): greater than 80%
- displacement of 3H-methotrexate and binding to DHFR, aminopterin vs methotrexate [4]: equivalent
- frequency of toxic reactions ([5]; schedule (i): 1 tablet (0.5 mg) daily for six days): 0%
- frequency of toxic reactions ([5]; schedule (ii): 1 tablet daily six days, one week rest, 1 tablet daily six days): 2.5%
- frequency of toxic reactions ([5]; schedule (iii): 1 tablet daily for 12 days): 13%
- frequency of toxic reactions ([5]; schedule (iv): 2 tablets daily for six days): 30%
- overall incidence of toxicity [6]: 21%
- toxic reactions [7]: the majority of patients developed toxic reactions
- efficacy [8]: demonstrated the efficacy
- efficacy [9]: demonstrated the efficacy
- toxicity [9]: severe toxicity
